One assay has as its system PEDF. The experiment in a line: PEDF in vitreous of streptozotocin-diabetic rats, immunoassay. Format: in vivo, rat. The following applies: vitreous of male streptozotocin-diabetic rats treated for 26 weeks with 15 mg/kg/day by gavage; Normal Control 15.3, Diabetic Control 4.6. As to the method:
(§1) Vitreous was harvested from male rats that were rendered diabetic by intravenous injection of streptozotocin and that were treated for 26 weeks with 23CPPA (15 mg/kg/day) administered by gavage, and from age and gender matched diabetic and nondiabetic control rats. PEDF and VEGF were measured by immunoassay. The relative ratio of VEGF to PEDF in diabetic control rats and diabetic rats treated with 23CPPA was compared to that in nondiabetic control rats which was assigned an arbitrary value of 1.0.

The test system of the next assay is VEGF. The experiment in a line: VEGF in vitreous of streptozotocin-diabetic rats, immunoassay. Type of assay: in vivo, rat. The following applies: vitreous of male streptozotocin-diabetic rats treated for 26 weeks with 15 mg/kg/day by gavage; Normal Control 75, Diabetic Control 167. How it is done:
as §1

Turning to `O=C(O)Cc1ccccc1Nc1cccc(Cl)c1` [23CPPA, 2-[(3-chlorophenyl)amino]phenylacetic acid], in the assay with PEDF, the PEDF came out at 8.7 ng/mL. In the assay on VEGF, this compound returned a VEGF of 105 pg/mL.

For the origin of these results see patent US20100035993A1, “METHODS AND COMPOSITIONS COMPRISING 2-[(3-CHLOROPHENYL) AMINO] PHENYLACETIC ACID FOR HYPERPERMEABILITY AND NEOVASCULARIZATION DISORDERS OF THE RETINA” (priority 2008, published 2010).
